Reference: ChEMBL document CHEMBL3745609, “Discovery of pyrazolopyrimidine phosphodiesterase 10A inhibitors for the treatment of schizophrenia” (Bioorg Med Chem Lett, 2016)
Values after ≈ are worked out from the molar mass of the structure shown. Active and inactive are the calls of the source. No cut-off for these calls is given here.

Legend:
Cytochrome P450 2D6 = Cytochrome P450 2D6 (Homo sapiens, UniProt P10635); test: Inhibition of CYP2D6 (unknown origin); format: ADME
Cytochrome P450 3A4 [1] = target: T1, Cytochrome P450 3A4 (Homo sapiens, UniProt P08684); test: Inhibition of CYP3A4 (unknown origin); format: ADME
[2] = target: T2, Nuclear receptor subfamily 1 group I member 2 (Homo sapiens, UniProt O75469); test: Activation of PXR (unknown origin); format: ADME
T2 sequence (O75469 whole entry): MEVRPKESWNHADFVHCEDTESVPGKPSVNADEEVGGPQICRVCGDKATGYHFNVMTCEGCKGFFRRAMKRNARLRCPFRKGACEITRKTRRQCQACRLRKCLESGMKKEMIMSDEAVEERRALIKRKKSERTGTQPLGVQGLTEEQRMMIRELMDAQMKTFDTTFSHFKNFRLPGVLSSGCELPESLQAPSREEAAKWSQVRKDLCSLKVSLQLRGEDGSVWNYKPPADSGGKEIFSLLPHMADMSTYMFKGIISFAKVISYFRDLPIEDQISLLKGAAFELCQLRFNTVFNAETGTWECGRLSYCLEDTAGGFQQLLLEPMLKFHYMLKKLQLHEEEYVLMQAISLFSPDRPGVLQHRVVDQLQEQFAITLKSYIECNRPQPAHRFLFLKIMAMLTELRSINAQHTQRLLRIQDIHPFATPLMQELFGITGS

[3] = Aqueous solubility of the compound at pH 7; format: physicochemical
[4] = Plasma protein binding in iv dosed Wistar Hanover rat; format: ADME, organism-based; settings: read-out: PPB (converted)
[5] = target: cAMP and cAMP-inhibited cGMP 3',5'-cyclic phosphodiesterase 10A (Homo sapiens, UniProt Q9Y233); test: Inhibition of PDE10A (unknown origin) by IMAP assay
[6] = Plasma clearance in iv dosed Wistar Hanover rat; format: ADME, organism-based
[7] = target: Voltage-gated inwardly rectifying potassium channel KCNH2 (Homo sapiens, UniProt Q12809); test: Inhibition of MK-499 binding to human ERG
[8] = Terminal half life in iv dosed Wistar Hanover rat; format: ADME, organism-based; settings: in vivo, read-out: beta t1/2 (converted)
[9] = Plasma protein binding in iv dosed rhesus monkey; format: ADME, organism-based, Macaca mulatta; settings: read-out: PPB (converted)
Rattus norvegicus [10] = test: Cognition enhancing activity in rat assessed as increase in episodic like memory up to 1.5 mg/kg, po by novel object recognition assay; format: functional, organism-based
[11] = Plasma protein binding in iv dosed beagle dog; format: ADME, organism-based, Canis lupus familiaris; settings: read-out: PPB (converted)
[12] = Plasma clearance in iv dosed rhesus monkey; format: ADME, organism-based, Macaca mulatta
Rattus norvegicus [13] = organism: Rattus norvegicus; test: Toxicity in rat assessed as decrease in total body fat after 7 days; format: organism-based; settings: in vivo, 168 h
Rattus norvegicus [14] = test: In vivo inhibition of PDE10A in rat striatum assessed as increase in cGMP level at >3 mg/kg, po after 2 hrs relative to control; format: functional
[15] = Terminal half life in iv dosed beagle dog; format: ADME, organism-based, Canis lupus familiaris; settings: in vivo, read-out: beta t1/2 (converted)
[16] = Terminal half life in iv dosed rhesus monkey; format: ADME, organism-based, Macaca mulatta; settings: in vivo, read-out: beta t1/2 (converted)
[17] = Lipophilicity, log D of the compound at pH 7 by HPLC method; format: physicochemical; settings: buffer
Salmonella typhimurium = test: Mutagenicity in Salmonella typhimurium up to 5000 ug/plate by 5-strain Ames test; format: toxicity, organism-based; settings: salmonella enterica subsp. enterica serovar typhimurium
Rhesus monkey [18] = test: In-vivo occupancy at PDE10A in rhesus monkey assessed as inhibition of [11C]MK-8193 binding; format: functional, Macaca mulatta
Cytochrome P450 3A4 [19] = target: T1, Cytochrome P450 3A4; test: Time dependent inhibition of CYP3A4 (unknown origin); format: ADME
Rattus norvegicus [20] = organism: Rattus norvegicus; test: Toxicity in rat assessed as lean body mass after 7 days; format: organism-based; settings: in vivo, 168 h
Rattus norvegicus [21] = test: Cardiotoxicity in iv dosed rat; format: toxicity, organism-based; settings: in vivo
[22] = Plasma clearance in iv dosed beagle dog; format: ADME, organism-based, Canis lupus familiaris
P-gp [23] = test: Substrate activity at rat P-gp assessed as efflux ratio of permeability across basolateral to apical over apical to basolateral side; format: ADME; settings: not told
[24] = Plasma protein binding in iv dosed human; format: ADME, organism-based; settings: read-out: PPB (converted)
Rattus norvegicus [25] = organism: Rattus norvegicus; test: Toxicity in rat assessed as decrease in body weight gain after 7 days; format: organism-based; settings: in vivo, 168 h
[26] = Inhibition of platelet aggregation factor (unknown origin); set-up: species or system Homo sapiens
Rattus norvegicus [27] = test: Anti-psychotic activity in rat assessed as plasma concentration needed to attenuate MK-801-induced hyperlocomotion at 1.5 mg/kg, po; format: functional
Cavia porcellus = organism: Cavia porcellus; test: Toxicity in guinea pig; format: organism-based; settings: in vivo
Rattus norvegicus [28] = organism: Rattus norvegicus; test: Anti-psychotic activity in rat assessed as reversal of MK-801-induced prepulse inhibition; format: functional, organism-based
[29] = Oral bioavailability in rhesus monkey; format: ADME, organism-based, Macaca mulatta; settings: in vivo
Rattus norvegicus [30] = test: Toxicity in rat assessed as induction of catalepsy up to 30 mg/kg, po; format: organism-based; settings: in vivo
Rattus norvegicus [31] = test: Toxicity in rat assessed as influence on circulating prolactin level up to 30 mg/kg, po; format: organism-based; settings: in vivo
[32] = Oral bioavailability in Wistar Hanover rat; format: ADME, organism-based; settings: in vivo
[33] = Apparent passive permeability of the compound; format: physicochemical; settings: not told
[34] = Oral bioavailability in beagle dog; format: ADME, organism-based, Canis lupus familiaris; settings: in vivo
Rattus norvegicus [35] = test: Toxicity in rat up to 250 mg/kg after 7 days; format: organism-based; settings: in vivo, 168 h
Homo sapiens = organism: Homo sapiens; test: Selectivity for PDE10A (unknown origin) over PDE (unknown origin)
Rhesus monkey [36] = test: Potency index, ratio of THPP-1 Occ50 to compound Occ50 for in-vivo occupancy at PDE10A in rhesus monkey assessed as inhibition of [11C]MK-8193 binding; format: functional, Macaca mulatta
P-gp [37] = test: Substrate activity at human P-gp assessed as efflux ratio of permeability across basolateral to apical over apical to basolateral side; format: ADME; settings: not told
[38] = Plasma protein binding in rat; format: ADME, cell-free; settings: read-out: PPB (converted)
Cytochrome P450 2C9 = Cytochrome P450 2C9 (Homo sapiens, UniProt P11712); test: Inhibition of CYP2C9 (unknown origin); format: ADME
[39] = Clearance in rat; format: ADME, organism-based; settings: in vivo

Sequence of Voltage-gated inwardly rectifying potassium channel KCNH2 (Q12809 whole entry): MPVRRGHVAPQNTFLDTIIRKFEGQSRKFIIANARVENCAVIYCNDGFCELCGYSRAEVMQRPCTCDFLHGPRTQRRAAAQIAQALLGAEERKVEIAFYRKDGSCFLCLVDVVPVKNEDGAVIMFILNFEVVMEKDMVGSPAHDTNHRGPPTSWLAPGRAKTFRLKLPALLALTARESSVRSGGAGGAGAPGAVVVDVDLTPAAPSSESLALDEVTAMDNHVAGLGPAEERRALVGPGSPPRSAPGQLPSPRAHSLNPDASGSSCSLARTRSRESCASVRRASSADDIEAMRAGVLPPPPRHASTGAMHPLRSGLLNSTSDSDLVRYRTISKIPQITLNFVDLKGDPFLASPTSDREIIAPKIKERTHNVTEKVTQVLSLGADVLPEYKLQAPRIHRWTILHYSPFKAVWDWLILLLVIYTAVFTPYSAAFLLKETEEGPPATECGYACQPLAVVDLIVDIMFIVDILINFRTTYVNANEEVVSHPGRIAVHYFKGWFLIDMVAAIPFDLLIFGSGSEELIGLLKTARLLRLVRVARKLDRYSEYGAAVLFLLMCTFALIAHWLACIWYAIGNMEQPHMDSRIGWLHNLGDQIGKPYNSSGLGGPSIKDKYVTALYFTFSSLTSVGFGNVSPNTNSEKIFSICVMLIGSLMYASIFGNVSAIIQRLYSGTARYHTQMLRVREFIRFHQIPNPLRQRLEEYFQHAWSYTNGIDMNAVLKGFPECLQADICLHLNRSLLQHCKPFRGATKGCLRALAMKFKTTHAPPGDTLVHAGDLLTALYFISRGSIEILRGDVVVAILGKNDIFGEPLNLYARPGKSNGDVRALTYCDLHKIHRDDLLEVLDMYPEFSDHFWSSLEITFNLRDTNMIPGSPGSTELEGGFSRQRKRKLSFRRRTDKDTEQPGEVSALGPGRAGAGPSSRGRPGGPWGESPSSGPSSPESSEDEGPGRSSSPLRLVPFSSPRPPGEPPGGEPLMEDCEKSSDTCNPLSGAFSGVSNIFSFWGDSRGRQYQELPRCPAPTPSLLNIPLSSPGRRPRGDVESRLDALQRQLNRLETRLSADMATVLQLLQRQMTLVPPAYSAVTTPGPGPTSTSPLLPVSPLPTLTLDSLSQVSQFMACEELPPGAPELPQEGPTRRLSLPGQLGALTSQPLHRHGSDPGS
T1 sequence (P08684 whole entry): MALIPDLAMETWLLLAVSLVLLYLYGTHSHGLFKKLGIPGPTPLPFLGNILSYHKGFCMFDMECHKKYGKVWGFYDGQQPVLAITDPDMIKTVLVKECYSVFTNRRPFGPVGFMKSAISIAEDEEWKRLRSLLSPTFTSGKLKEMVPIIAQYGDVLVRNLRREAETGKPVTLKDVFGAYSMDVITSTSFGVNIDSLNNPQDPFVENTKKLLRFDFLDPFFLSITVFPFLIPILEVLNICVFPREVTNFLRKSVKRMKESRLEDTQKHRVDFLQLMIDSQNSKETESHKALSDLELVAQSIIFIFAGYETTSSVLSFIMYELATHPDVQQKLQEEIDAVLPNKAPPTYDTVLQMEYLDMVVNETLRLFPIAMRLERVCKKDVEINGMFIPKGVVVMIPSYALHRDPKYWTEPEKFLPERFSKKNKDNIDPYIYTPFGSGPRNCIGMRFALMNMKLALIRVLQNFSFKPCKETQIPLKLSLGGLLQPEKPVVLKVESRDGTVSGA
Sequence of cAMP and cAMP-inhibited cGMP 3',5'-cyclic phosphodiesterase 10A (Q9Y233 whole entry): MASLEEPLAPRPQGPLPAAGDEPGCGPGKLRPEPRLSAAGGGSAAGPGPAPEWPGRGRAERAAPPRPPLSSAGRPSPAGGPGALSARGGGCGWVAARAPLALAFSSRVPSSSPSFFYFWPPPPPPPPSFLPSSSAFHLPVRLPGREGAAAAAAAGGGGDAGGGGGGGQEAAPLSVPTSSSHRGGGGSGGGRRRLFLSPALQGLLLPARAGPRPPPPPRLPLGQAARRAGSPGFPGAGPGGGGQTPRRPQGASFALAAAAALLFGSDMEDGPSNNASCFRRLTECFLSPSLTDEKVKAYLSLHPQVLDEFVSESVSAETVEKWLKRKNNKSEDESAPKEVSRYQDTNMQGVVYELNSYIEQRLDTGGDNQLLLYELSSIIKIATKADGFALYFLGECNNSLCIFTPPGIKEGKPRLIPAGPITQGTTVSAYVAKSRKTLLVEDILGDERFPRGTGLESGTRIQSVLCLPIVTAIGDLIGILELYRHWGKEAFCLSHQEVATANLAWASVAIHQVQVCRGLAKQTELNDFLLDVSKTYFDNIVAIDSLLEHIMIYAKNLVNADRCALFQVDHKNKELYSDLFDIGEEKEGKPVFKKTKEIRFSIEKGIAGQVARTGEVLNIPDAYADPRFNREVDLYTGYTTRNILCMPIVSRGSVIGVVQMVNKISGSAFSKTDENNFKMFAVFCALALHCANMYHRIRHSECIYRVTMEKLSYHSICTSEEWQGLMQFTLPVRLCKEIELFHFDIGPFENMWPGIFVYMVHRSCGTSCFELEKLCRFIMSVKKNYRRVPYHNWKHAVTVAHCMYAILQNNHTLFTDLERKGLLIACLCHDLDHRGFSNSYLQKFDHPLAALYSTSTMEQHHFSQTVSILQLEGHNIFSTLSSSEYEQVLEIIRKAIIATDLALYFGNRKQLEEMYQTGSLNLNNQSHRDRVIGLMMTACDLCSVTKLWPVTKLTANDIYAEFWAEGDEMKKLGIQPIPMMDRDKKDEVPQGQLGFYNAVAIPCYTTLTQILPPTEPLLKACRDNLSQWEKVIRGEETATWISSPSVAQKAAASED
Sequence of Cytochrome P450 2C9 (P11712 whole entry): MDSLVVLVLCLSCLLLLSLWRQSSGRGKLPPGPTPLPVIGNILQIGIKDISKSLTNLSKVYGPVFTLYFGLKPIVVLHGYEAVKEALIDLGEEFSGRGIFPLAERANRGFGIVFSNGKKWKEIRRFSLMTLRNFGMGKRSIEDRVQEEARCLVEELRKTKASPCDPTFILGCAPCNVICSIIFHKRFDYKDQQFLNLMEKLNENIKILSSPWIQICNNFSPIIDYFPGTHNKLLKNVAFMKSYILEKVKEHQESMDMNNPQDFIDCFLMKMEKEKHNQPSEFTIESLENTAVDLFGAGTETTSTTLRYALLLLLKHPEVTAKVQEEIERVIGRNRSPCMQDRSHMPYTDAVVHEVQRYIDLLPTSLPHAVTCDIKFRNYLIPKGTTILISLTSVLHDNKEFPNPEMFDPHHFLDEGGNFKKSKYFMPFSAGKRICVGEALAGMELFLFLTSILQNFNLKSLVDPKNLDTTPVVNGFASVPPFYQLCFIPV
Sequence of Cytochrome P450 2D6 (P10635 whole entry): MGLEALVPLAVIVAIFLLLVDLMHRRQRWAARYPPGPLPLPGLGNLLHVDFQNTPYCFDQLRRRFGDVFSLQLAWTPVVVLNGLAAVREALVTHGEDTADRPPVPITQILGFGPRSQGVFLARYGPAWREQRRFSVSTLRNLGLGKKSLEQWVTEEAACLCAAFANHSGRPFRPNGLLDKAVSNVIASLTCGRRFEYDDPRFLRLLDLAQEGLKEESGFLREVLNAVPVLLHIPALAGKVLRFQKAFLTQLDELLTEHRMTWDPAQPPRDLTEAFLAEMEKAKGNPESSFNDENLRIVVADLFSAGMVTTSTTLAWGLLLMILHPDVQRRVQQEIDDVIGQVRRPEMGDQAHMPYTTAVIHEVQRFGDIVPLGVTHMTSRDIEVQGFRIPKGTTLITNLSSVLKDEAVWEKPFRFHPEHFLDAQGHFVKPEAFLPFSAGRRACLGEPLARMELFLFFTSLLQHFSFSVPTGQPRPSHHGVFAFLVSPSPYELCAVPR

Cc1nc(C)c(CNc2nc(C3CC3)nc(Cl)c2C)s1
IC50 (Cytochrome P450 2D6): 8200 nM | IC50 (Cytochrome P450 3A4 [1]): 17000 nM | EC50 [2]: 19000 nM | solubility [3]: 2 µM (≈ 0.618 µg/mL) | fraction unbound [4]: 0.015

Cc1nc(C)c(CNc2nc(NCCCc3ccccn3)nc(Cl)c2C)s1
Ki [5]: 4.1 nM

Cc1nc(C)c(CNc2nc(OCC3CC3C3CCCN3C)nc(Cl)c2C)s1 (racemic; form 2)
Ki [5]: 54 nM

Cc1ccnc(C2CC2COc2nc(Cl)c(C)c(NCc3sc(C)nc3C)n2)c1 (centres undefined)
Ki [5]: 0.01 nM

Cc1nc(C)c(CNc2nc(OCC3CC3c3ncccn3)nc(Cl)c2C)s1 (racemic)
Ki [5]: 3.6 nM

Cc1nc(C)c(CNc2nc(OCCCc3ccc4ccccc4n3)nc(Cl)c2C)s1
EC50 [2]: 2300 nM | clearance [6]: 60 mL/min/kg | INH [7]: 3.8 µM

Cc1c(Cl)nc(C2CC2)nc1Cl
solubility [3]: 150 µM (≈ 30.5 µg/mL)

Cc1nc(C)c(CNc2nc(OCC3CC3c3cn(C)cn3)nc(Cl)c2C)s1 (racemic)
Ki [5]: 0.02 nM

Cc1nc(C)c(CNc2nc(CCCOc3ccccn3)nc(Cl)c2C)s1
Ki [5]: 3.1 nM

Cc1nc(C)c(CNc2nc(OCC3CC3C3CCCN3C)nc(Cl)c2C)s1 (racemic; form 1)
Ki [5]: 102 nM

Cc1nc(C)c(CNc2nc(NCC(C)(C)Cc3ccccn3)nc(Cl)c2C)s1
Ki [5]: 19.1 nM

Cc1nc(C)c(CNc2nc(OCC3CC3c3ccc4ncccc4n3)nc(Cl)c2C)s1 (racemic)
Ki [5]: 0.02 nM

Cc1nc(C)c(CNc2nc(CC[C@H]3C[C@@H]3c3ccccn3)nc(Cl)c2C)s1 (racemic)
Ki [5]: 1.7 nM

Cn1cc(CNc2cc(OC[C@H]3C[C@@H]3c3ccccn3)nc3ccnn23)cn1
half-life [8]: 4.9 h | fraction unbound [9]: 0.03 | Activity (Rattus norvegicus [10]): Active | fraction unbound [11]: 0.06 | clearance [12]: 8.2 mL/min/kg | Activity (Rattus norvegicus [13]): Toxic | inhibition (INH) (Rattus norvegicus [14]): >150% | half-life [15]: 8.7 h | half-life [16]: 2.8 h | Ki [5]: 0.23 nM | logD [17]: 2 | IC50 (Cytochrome P450 3A4 [1]): > 50000 nM | Activity (Salmonella typhimurium): Non-toxic | Occ50 (Rhesus monkey [18]): 1.1 µM | TDI (Cytochrome P450 3A4 [19]): Not Active | Activity (Rattus norvegicus [20]): Toxic | Activity (Rattus norvegicus [21]): Non-toxic | clearance [22]: 3.9 mL/min/kg | EC50 [2]: > 25000 nM | efflux ratio (P-gp [23]): 0.7 | fraction unbound [24]: 0.07 | Activity (Rattus norvegicus [25]): Toxic | IC50 [26]: 2200 nM | Activity (Rattus norvegicus [27]): 130 nM | Activity (Cavia porcellus): Non-toxic | Activity (Rattus norvegicus [28]): Dose-dependent effect | bioavailability [29]: 46% | Activity (Rattus norvegicus [30]): Non-toxic | Activity (Rattus norvegicus [31]): Non-toxic | clearance [6]: 21 mL/min/kg | bioavailability [32]: 41% | INH [7]: > 60 µM | fraction unbound [4]: 0.09 | Papp [33]: 36 ×10⁻⁶ cm/s | bioavailability [34]: 63% | Activity (Rattus norvegicus [35]): Non-toxic | Selectivity ratio (Homo sapiens): > 5800 | Ratio (Rhesus monkey [36]): 2 | efflux ratio (P-gp [37]): 0.6

Cc1nc(C)c(CNc2cc(C3CC3)nc3ccnn23)s1
IC50 (Cytochrome P450 3A4 [1]): > 50000 nM | fraction unbound [38]: 0.08 | EC50 [2]: > 250000 nM | solubility [3]: 196 µM (≈ 58.7 µg/mL) | INH [7]: 52 µM

Cc1nc(C)c(CNc2nc(OCC3CC3c3ccc4ccccc4n3)nc(Cl)c2C)s1 (racemic)
Ki [5]: 0.01 nM

Clc1cc(Cl)n2nccc2n1
Ki [5]: 24000 nM | solubility [3]: > 500 µM

Cc1nc(C)c(CNc2nc(CCCCc3ccccn3)nc(Cl)c2C)s1
Ki [5]: 0.4 nM

Cc1nc(C)c(CNc2nc(OC[C@H]3C[C@@H]3c3ccccn3)nc(Cl)c2C)s1 (racemic)
Ki [5]: 0.07 nM

Cc1nc(C)c(CNc2nc(CCC#Cc3ccccn3)nc(Cl)c2C)s1
Ki [5]: 1.1 nM

Cc1nc(C)c(CNc2nc(OCCCc3ccccn3)nc(Cl)c2C)s1
Ki [5]: 1.1 nM

Cc1nc(C)c(CNc2cc(Cl)nc3ccnn23)s1
Ki [5]: 58 nM

Cn1cc(-c2ccncc2)c(-c2ccc(OCc3ccc4ccccc4n3)cc2)n1 [MARDEPODECT]
solubility [3]: 4 µM (≈ 1.57 µg/mL)

Cc1nc(C)c(CNc2nc(OCC3CC3c3cncn3C)nc(Cl)c2C)s1 (centres undefined)
Ki [5]: 20.3 nM

Cc1nc(C)c(CNc2nc(OC[C@@H]3C[C@H]3c3ccccn3)nc(Cl)c2C)s1
Ki [5]: 8.6 nM

Cc1nc(C)c(CNc2nc(OCC#Cc3ccccn3)nc(Cl)c2C)s1
Ki [5]: 3.1 nM

Cc1nc(C)c(CNc2nc(OC[C@H]3C[C@@H]3c3ccccn3)nc(Cl)c2C)s1
Ki [5]: 0.03 nM

Cc1nc(C)c(CNc2nc(OCC3CC3c3cc4ccccn4n3)nc(Cl)c2C)s1 (racemic)
Ki [5]: 0.006 nM

COc1ccnc(C2CC2COc2nc(Cl)c(C)c(NCc3sc(C)nc3C)n2)c1 (racemic)
Ki [5]: 0.01 nM

Cc1nc(C)c(CNc2nc(OCC3CC3c3ccc(C#N)cn3)nc(Cl)c2C)s1 (racemic)
Ki [5]: 1.4 nM

Cc1nc(C)c(CNc2nc(OCC3CC3c3ccncc3)nc(Cl)c2C)s1 (centres undefined)
Ki [5]: 8.3 nM

Cc1c(Cl)nc(OC[C@H]2C[C@@H]2c2ccccn2)nc1NCc1cnn(C)c1
IC50 (Cytochrome P450 3A4 [1]): 3800 nM | IC50 (Cytochrome P450 2C9): 5200 nM | clearance [39]: 29 mL/min/kg | fraction unbound [38]: 0.01 | EC50 [2]: 5600 nM | solubility [3]: 162 µM (≈ 62.3 µg/mL) | INH [7]: > 60 µM | Selectivity ratio (Homo sapiens): > 2500

Cc1nc(C)c(CNc2nc(OC[C@H]3C[C@H]3c3ccccn3)nc(Cl)c2C)s1 (racemic)
Ki [5]: 15.5 nM
